Source: US5034528A, “Compositions for the control of hyperlipidemia” (North Carolina Central University, priority 1988, dated 1991)
Like-named read-outs stand apart in the source and are kept apart here.

Key:
[1] = system: serum cholesterol and serum triglyceride levels; test: Testing of normal mice: serum cholesterol and serum triglyceride levels, compounds 20 mg/kg/d ip for 16 days; type: in vivo; details: CF1 male mice; for response vs control in vivo at 20 mg/kg/day: Mus musculus
Description: The following compounds were tested for their hypolipidemic activity in CF1 mice.
Compounds A-V as defined above, were suspended in an aqueous 1 percent carboxymethylcellulose (CMC) solution and homogenized. Each of the so prepared compounds were administered to a group of six CF1 male mice, each weighing approximately 25 grams, intra-peritioneally for 16 days. Each of these compounds were provided in a dosage of 20 mg/kg/d ip. On Days 9 and 16 blood was obtained by tail vein bleeding. The blood serum so obtained was separated by centrifugation for three minutes. Serum cholesterol levels were determined by a modification of the Liebermann-Burchard reaction (Ness, Clin. Chim. Acta., Vol. 10, 229 [1964]). Serum triglyceride levels were determined on Day 16 by use of the Fisher, Hycel Triglyceride Test Kit.
In addition to the above-described treated mice, an untreated control group of six mice were similarly tested on Days 9 and 16 to determine their serum cholesterol and trigylceride blood levels. Based on the results obtained for the untreated control group, the percent control, based on serum cholesterol and serum triglyceride levels of the treated mice compared to the untreated mice, was obtained. Table 1 reports this percent control, including standard deviation, indicating the level of confidence of these numbers.

[2] = system: cholesterol content of serum lipoprotein (VLDL, LDL, HDL); test: Cholesterol content of serum lipoprotein of rats treated orally for 14 days; type: in vivo; details: Sprague-Dawley rats, orally 14 days, 20 mg/kg/day; control 1% CMC = 100
Description: The cholesterol content of serum lipoprotein of
Sprague-Dawley Rats treated orally for 14 days at 20 mg/kg/day

[3] = system: mice; test: LD50 in mice as single injection IP
[4] = system: serum cholesterol and serum triglyceride levels; test: Testing of hyperlipidemic mice: serum cholesterol and serum triglyceride levels on atherogenic diet; type: in vivo; details: hyperlipidemic CF1 male mice, 20 mg/kg/d ip, Day 12; diet-hyperlipidemic = 100
Description: A group of six CF1 male mice (about 25 g) were placed on a commercial diet (U.S. Biochemical Corporation BAsal Atherogenic Test Diet) which produced a "hyperlipidemic" state. That is, the average serum cholesterol level in the group of treated mice was raised from 122 to 375 mg percent and triglyceride levels were raised from 137 to 367 mg/dL.

[5] = system: serum cholesterol and triglyceride levels; test: Serum testing of normal rats: serum cholesterol and triglyceride levels, oral; type: in vivo; details: Sprague-Dawley male rats, 20 mg/kg/day orally
Text: Test solution of Compounds A, F, J, M, N and O were suspended in an aqueous solution of 1% CMC, homogenized and administered orally to six Sprague-Dawley male rats, which each weighted approximately 350 grams. Administration of the compounds was by an intubation needle. The rats were each fed with 20 milligrams of Compounds A, F, J, M, N and O per kilogram of body weight per day for 14 days. Similarly, six Sprague-Dawley male rats of approximately the same weight (that used for testing F weighed approximately 160 grams) were fed similar volumes of the same aqueous 1% CMC solution without the active agents, also orally, administered by intubation needle. In addition, as a control, a similar group of six male Sprague-Dawley rats were untreated.
On Days 7 and 14, blood was obtained from each of the rats of the three groups by tail vein bleeding. The blood obtained was separated by centrifugation for three minutes. Serum cholesterol and triglyceride levels were determined in accordance with the procedure of Example 6.

[6] = in vivo; details: mouse, ip
[7] = 216 h, Day 9, ± standard deviation, read-out: Serum Cholesterol, Day 9 (percent control)
[8] = 384 h, Day 16, ± standard deviation, read-out: Serum Cholesterol, Day 16 (percent control)
[9] = 384 h, Day 16, ± standard deviation, read-out: Serum Triglyceride, Day 16 (percent control)

| Compound | Serum Cholesterol, Day 9 (percent control) ([1]; Day 9, ± standard deviation) | Serum Cholesterol, Day 16 (percent control) ([1]; Day 16, ± standard deviation) | Serum Triglyceride, Day 16 (percent control) ([1]; Day 16, ± standard deviation) | HDL cholesterol, Percent of Control [2] | LDL cholesterol, Percent of Control [2] | VLDL cholesterol, Percent of Control [2] | LD50 value in mice as single injection IP [3] | Serum Cholesterol, Percent of Control, hyperlipidemic mice [4] | Serum Triglyceride, Percent of Control, hyperlipidemic mice [4] | Serum Cholesterol, Day 7, Percent of Control [5] | Serum Triglyceride, Day 7, Percent of Control [5] | Serum Cholesterol, Day 14, Percent of Control [5] | Serum Triglyceride, Day 14, Percent of Control [5] | LD50 [6] | response vs control in vivo at 20 mg/kg/day [1, 7] | response vs control in vivo at 20 mg/kg/day [1, 8] | response vs control in vivo at 20 mg/kg/day [1, 9] |
| --- | --- | --- | --- | --- | --- | --- | --- | --- | --- | --- | --- | --- | --- | --- | --- | --- | --- |
| CCOC(=O)C1n2c(=O)n(-c3ccc(Cl)cc3)c(=O)n21 [L, 3-(4-chlorophenyl)-6-ethoxyacarbonyl-1,3,5-triazabicyclo[3.1.0]hexane-2,4-dione] | 74 ± 3 percent control | 56 ± 5 percent control | 66 ± 7 percent control | – | – | – | – | – | – | – | – | – | – | – | – | – | – |
| CCOC(=O)C1n2c(=O)n(-c3ccccc3)c(=O)n21 [M, 3-phenyl-6-ethoxycarbonyl-1,3,5-triazabicyclo[3.1.0]hexane-2,4-dione] | 62 ± 6 percent control | 57 ± 5 percent control | 59 ± 6 percent control | 340% of Control | 67% of Control | 71% of Control | > 500 mg/kg | 46% of Control | 54% of Control | 70% of Control | 36% of Control | 36% of Control | 54% of Control | – | – | – | – |
| CCOC(=O)c1nc(=O)n(-c2ccccc2)c(=O)[nH]1 [Compound N, 3-phenyl-6-ethoxycarbonyl-1,3,5-triazine-2,4(1 --H,3 --H)-dione] | – | – | – | 409% of Control | 87% of Control | – | – | 50% of Control | 46% of Control | 71% of Control | 61% of Control | 67% of Control | 53% of Control | > 500 mg/kg | – | – | – |
| COc1ccc(-n2c(=O)[nH][nH]c2=O)cc1 [F, 4-(4-methoxyphenyl)-1,2,4-triazolidine-3,5-dione] | – | – | – | 141% of Control | 78% of Control | 59% of Control | – | – | – | 77% of Control | 87% of Control | 66% of Control | 81% of Control | – | – | – | – |
| O=c1[nH][nH]c(=O)n1-c1ccc(Cl)cc1 [J, 4-(4-chlorophenyl)-1,2,4-triazolidine-3,5-dione] | – | – | – | 194% of Control | 43% of Control | 98% of Control | – | 46% of Control | 49% of Control | 59% of Control | 61% of Control | 60% of Control | 52% of Control | – | – | – | – |
| CCCCCC(=O)n1c(=O)n(CCCC)c(=O)n1C(=O)CCCCC [T, 4-(4-n-butyl)-1,2 dipentylcarbonyl-1,2,4-triazolidine-3,5-dione] | – | – | – | – | – | – | – | – | – | – | – | – | – | – | 69% | 49% | 53% |
| O=C(Nc1ccccc1)n1[nH]c(=O)n(-c2ccccc2)c1=O [I, 4-phenyl-1-N-phenylcarbamoyl-1,2,4-triazolidine-3,5-dione] | – | – | – | – | – | – | – | – | – | – | – | – | – | – | 79 ± 7% | 74 ± 6% | 68 ± 6% |
| CCOC(=O)c1nc(=O)n(-c2ccc(Cl)cc2)c(=O)[nH]1 [O, 3-(4-chlorophenyl)-6-ethoxycarbonyl-1,3,5-triazine-2,4(1H,3 --H)-dione] | – | – | – | 113% of Control | 78% of Control | 27% of Control | – | – | – | 84% of Control | 82% of Control | 60% of Control | 77% of Control | – | – | – | – |
| CC(=O)n1[nH]c(=O)n(-c2ccccc2)c1=O [A, 4-phenyl-1-methylcarbonyl-1,2,4-triazolidine-3,5-dione] | – | – | – | 441% of Control | 74% of Control | 44% of Control | – | 41% of Control | 40% of Control | 89% of Control | 62% of Control | 69% of Control | 48% of Control | – | – | – | – |
